Experimental data published in PubChem BioAssay AID248 (DTP/NCI, 2004).
Toxic doses and inconclusive results are not listed. Rule as the data show it: active = T/C of 150% or more; inactive = T/C below 125%.

System: L1210 leukemia ip in BDF1 mice, survival T/C
Assay: NCI In Vivo Anticancer Drug Screen. Data for tumor model L1210 Leukemia (intraperitoneal) in B6D2F1 (BDF1) mice
Settings: endpoint: mean survival time, higher = longer survival
In short: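 Each compound was tested against a transplantable tumor grown in mice. The endpoint was survival, with treated animals benchmarked against vehicle controls as a simple ratio.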

[1] = dose: 100.0 mg/kg/injection, schedule: Q04DX003 (ip), vehicle: Klucel (hydroxypropylcellulose) (HPC)
[2] = dose: 100.0 mg/kg/injection, schedule: Q01DX001 (ip), vehicle: saline
[3] = dose: 200.0 mg/kg/injection, schedule: Q01DX001 (ip), vehicle: saline
[4] = dose: 400.0 mg/kg/injection, schedule: Q01DX001 (ip), vehicle: saline
[5] = dose: 100.0 mg/kg/injection, schedule: Q01DX009 (ip), vehicle: saline
[6] = dose: 200.0 mg/kg/injection, schedule: Q01DX009 (ip), vehicle: saline
[7] = dose: 400.0 mg/kg/injection, schedule: Q01DX009 (ip), vehicle: saline
[8] = dose: 100.0 mg/kg/injection, schedule: Q04DX003 (ip), vehicle: saline
[9] = dose: 200.0 mg/kg/injection, schedule: Q04DX003 (ip), vehicle: saline
[10] = dose: 400.0 mg/kg/injection, schedule: Q04DX003 (ip), vehicle: saline
[11] = dose: 50.0 mg/kg/injection, schedule: Q01DX009 (ip), vehicle: Klucel (hydroxypropylcellulose) (HPC)
[12] = dose: 100.0 mg/kg/injection, schedule: Q01DX009 (ip), vehicle: Klucel (hydroxypropylcellulose) (HPC)
[13] = dose: 200.0 mg/kg/injection, schedule: Q01DX009 (ip), vehicle: Klucel (hydroxypropylcellulose) (HPC)
[14] = dose: 100.0 mg/kg/injection, schedule: Q04DX003 (ip), vehicle: saline with Tween-80
[15] = dose: 75.0 mg/kg/injection, schedule: Q01DX001 (ip), vehicle: saline
[16] = dose: 50.0 mg/kg/injection, schedule: Q04DX003 (ip), vehicle: saline with Tween-80
[17] = dose: 25.0 mg/kg/injection, schedule: Q01DX009 (ip), vehicle: saline with Tween-80
[18] = dose: 50.0 mg/kg/injection, schedule: Q01DX009 (ip), vehicle: saline with Tween-80
[19] = dose: 100.0 mg/kg/injection, schedule: Q01DX009 (ip), vehicle: saline with Tween-80
[20] = dose: 200.0 mg/kg/injection, schedule: Q01DX009 (ip), vehicle: saline with Tween-80
[21] = dose: 50.0 mg/kg/injection, schedule: Q04DX002 (ip), vehicle: Klucel (hydroxypropylcellulose) (HPC)
[22] = dose: 100.0 mg/kg/injection, schedule: Q04DX002 (ip), vehicle: Klucel (hydroxypropylcellulose) (HPC)

Measured: T/C

CCC(C)C(N)C(=O)O (stereo not given)
inactive: [1] 103 % of control | dose: 200.0 mg/kg/injection, schedule: Q04DX003 (ip), vehicle: Klucel (hydroxypropylcellulose) (HPC) 106 % of control | dose: 400.0 mg/kg/injection, schedule: Q04DX003 (ip), vehicle: Klucel (hydroxypropylcellulose) (HPC) 101 % of control

CCOc1cccc2c1OC(COS(=O)(=O)c1ccc(C)cc1)CO2 (stereo not given)
inactive: [2] 95 % of control | [3] 95 % of control | [4] 95 % of control

NNc1ccc(Cl)c(S(=O)(=O)O)c1
inactive: [5] 100 % of control | dose: 100.0 mg/kg/injection, schedule: Q04DX003 (ip), vehicle: alcohol 98 % of control | [6] 100 % of control | dose: 200.0 mg/kg/injection, schedule: Q04DX003 (ip), vehicle: alcohol 104 % of control | [7] 103 % of control | dose: 400.0 mg/kg/injection, schedule: Q04DX003 (ip), vehicle: alcohol 106 % of control

CNC(=O)C(C)C1C(=O)/C(=C(O)/C=C/C(C)=C\C(C)C2OC3(C)OC(C=CC34CO4)C2C)C(=O)N1C1CCC(O)C(C)O1 (stereo not given)
inactive: [5] 111 % of control | [8] 97 % of control | [6] 101 % of control | [9] 105 % of control | [10] 107 % of control

COc1ccc(OC)c(N(CCN2C(=O)c3ccccc3C2=O)C(=O)C2CCC(=O)C2C)c1 (stereo not given)
inactive: dose: 100.0 mg/kg/injection, schedule: Q04DX002 (ip), vehicle: saline with Tween-80 100 % of control | dose: 200.0 mg/kg/injection, schedule: Q04DX002 (ip), vehicle: saline with Tween-80 103 % of control | dose: 400.0 mg/kg/injection, schedule: Q04DX002 (ip), vehicle: saline with Tween-80 97 % of control

Oc1ccc(O)c2c1C1C=CC2CC1
inactive: [2] 96 % of control | [3] 105 % of control | [4] 98 % of control

O=P(NCCCl)(Nc1ccccc1)Nc1ccccc1
inactive: [11] 112 % of control | [12] 108 % of control | [1] 90 % of control | [13] 108 % of control

COC(=O)C(Cl)C(Cl)c1ccccc1 (stereo not given)
inactive: [14] 97 % of control | dose: 200.0 mg/kg/injection, schedule: Q04DX003 (ip), vehicle: saline with Tween-80 97 % of control | dose: 400.0 mg/kg/injection, schedule: Q04DX003 (ip), vehicle: saline with Tween-80 94 % of control

COc1cc2c3c(c1O)C1(C=CC(=O)C=C1)CC3N(C)CC2 (stereo not given)
inactive: [2] 92 % of control | [3] 94 % of control | [4] 90 % of control

COCCOCCOCCOCCOCCN
inactive: [5] 96 % of control | [6] 93 % of control | [7] 98 % of control

Nc1nc(N)c(CCCCc2ccccc2)c(Cc2ccccc2)n1
inactive: [11] 98 % of control | [12] 106 % of control | [13] 98 % of control

CC(=O)[C@H]1C[C@@H](CC(=O)O)C1(C)C
inactive: [2] 106 % of control | [8] 96 % of control | [3] 103 % of control | [9] 88 % of control | [4] 97 % of control | [10] 96 % of control

NNC(=O)CCCCCC(=O)NN
inactive: [5] 93 % of control | [8] 94 % of control | [6] 95 % of control | [9] 96 % of control | [7] 106 % of control | [10] 102 % of control

C=C1C(=O)OCC1C(=O)O (stereo not given)
inactive: [15] 98 % of control

COc1cccc2c1C(=O)OC2=O
inactive: dose: 75.0 mg/kg/injection, schedule: Q01DX009 (ip), vehicle: Klucel (hydroxypropylcellulose) (HPC) 88 % of control | dose: 150.0 mg/kg/injection, schedule: Q01DX009 (ip), vehicle: Klucel (hydroxypropylcellulose) (HPC) 90 % of control | dose: 300.0 mg/kg/injection, schedule: Q01DX009 (ip), vehicle: Klucel (hydroxypropylcellulose) (HPC) 88 % of control

COc1ccc(CC(=O)NNC(=O)C2(C(C)C)OC3(O)CCCCCN3C2=O)cc1OC (stereo not given)
inactive: dose: 12.5 mg/kg/injection, schedule: Q04DX003 (ip), vehicle: saline with Tween-80 101 % of control | dose: 25.0 mg/kg/injection, schedule: Q04DX003 (ip), vehicle: saline with Tween-80 92 % of control | [16] 101 % of control | [14] 90 % of control

CNCCCC1c2ccccc2C=Cc2ccccc21
inactive: dose: 3.12 mg/kg/injection, schedule: Q01DX009 (ip), vehicle: saline 100 % of control | dose: 6.25 mg/kg/injection, schedule: Q01DX009 (ip), vehicle: saline 96 % of control | dose: 12.5 mg/kg/injection, schedule: Q01DX009 (ip), vehicle: saline 101 % of control | dose: 25.0 mg/kg/injection, schedule: Q01DX009 (ip), vehicle: saline 100 % of control | dose: 25.0 mg/kg/injection, schedule: Q04DX003 (ip), vehicle: saline 90 % of control | dose: 50.0 mg/kg/injection, schedule: Q04DX003 (ip), vehicle: saline 101 % of control

CC1CC(C)(C)N=C(C2(c3ccccc3)CC2)O1 (stereo not given)
inactive: [17] 102 % of control | [18] 98 % of control | [16] 88 % of control | [19] 100 % of control | [14] 95 % of control | [20] 98 % of control

OCC(O)C(O)CO (stereo not given) (tested in a mixture with another compound)
inactive: [21] 104 % of control | [22] 95 % of control | dose: 200.0 mg/kg/injection, schedule: Q04DX002 (ip), vehicle: Klucel (hydroxypropylcellulose) (HPC) 98 % of control

COc1cc(C(O)c2nccc3cc(OC)c(OC)cc23)c([N+](=O)[O-])cc1OC (stereo not given)
inactive: [15] 111 % of control | dose: 150.0 mg/kg/injection, schedule: Q01DX001 (ip), vehicle: saline 106 % of control | dose: 300.0 mg/kg/injection, schedule: Q01DX001 (ip), vehicle: saline 101 % of control

CCOC(=O)C(Br)C(=O)OCC
inactive: dose: 18.75 mg/kg/injection, schedule: Q01DX009 (ip), vehicle: saline with Tween-80 97 % of control

Cc1cc2c3ccccc3[nH]c(=O)n2n1
inactive: [19] 96 % of control | [8] 100 % of control | [20] 95 % of control | [9] 96 % of control | dose: 400.0 mg/kg/injection, schedule: Q01DX009 (ip), vehicle: saline with Tween-80 86 % of control | [10] 87 % of control

CCN(CC)CCCOC(=O)N(Cc1ccc(Cl)cc1)C1CC1
inactive: [17] 100 % of control | [18] 93 % of control | [14] 102 % of control

CCNC(=O)C1C(c2ccccc2)C1c1ccccc1 (stereo not given)
inactive: dose: 25.0 mg/kg/injection, schedule: Q04DX002 (ip), vehicle: Klucel (hydroxypropylcellulose) (HPC) 97 % of control | [21] 102 % of control | [22] 102 % of control
